These results are taken from patent US20190275040A1, “COMPOUNDS AND METHODS FOR TREATING OR PREVENTING ALZHEIMER'S DISEASE” (YALE UNIVERSITY, priority 2016, published 2019).

The assay has as its system APP/PS1 transgenic mice. The assay is described as follows: Learning and memory (novel object recognition, Morris water maze) in APP/PS1 transgenic mice. The assay is classed as in vivo, mouse. The note with it: 12 month APP/PS1 mice, 25 mg/kg/d minipump i.p. infusion, 3-6 weeks. How it is done:
FIG. 5A plots the time mice spent interacting with a familiar and a novel object. Mean±SEM, n=10-16 mice. *, p<0.05; **, p<0.01 by two-way ANOVA, Sidak's multiple comparisons test. FIG. 5B depicts spatial learning and memory as examined by the Morris-Water-Maze after 30 swim trials to a hidden platform. A 60 second probe trial was performed 24 hours after completion of training. Time spent in the quadrant where the hidden platform had been located. Mean±SEM of n=7-23 mice. *, p<0.05; ***, p<0.001. Dashed lines in FIGS. 5A-5B are chance (no memory). […]
The efficacy of PF-719 Pyk2 inhibitor to rescue AD transgenic phenotypes was tested by infusion for 6 weeks in 12 month APP/PS1 transgenic with pre-established memory deficits and WT mice, similar to the SAM 923 and Pyk2−/− experiments. […] The brains of these mice are analyzed for synapse density, gliosis and Aβ. […]
Mice were handled for five minutes a day for five days prior to experiment to reduce anxiety. […] Object choice was pseudorandom; the object was recorded as the familiar object for each animal. The mouse was then replaced in cage's center, not facing either object, and a total timer counted up to ten minutes. The mice were allowed to explore the object and the time it took to accumulate thirty seconds of total orofacial object exploration was recorded. […]

As to `CCOc1ccc2nc(SCc3nc(N)nc(N4CCOCC4)n3)sc2c1` [PF-719, 4-(((6-ethoxybenzo[d]thiazol-2-yl)thio)methyl)-6-morpholino-1,3,5-triazin-2-amine], the “learning and memory performance” value was “significantly greater than Vehicle/untreated levels”.
